Measured values reported in PubChem BioAssay AID330 (DTP/NCI, 2004).
Several values for one entry are separate records, joined by “and”; a condition that tells them apart may be missing. Identical values can stand only once. Toxic doses and inconclusive results are not listed. Rule for the calls: active = survival T/C of 150% or more; inactive = T/C below 125% in these data.

Test system: P388 leukemia ip, CD2F1 mice, survival T/C
Assay: NCI In Vivo Anticancer Drug Screen. Data for tumor model P388 Leukemia (intraperitoneal) in CD2F1 (CDF1) mice
Settings: endpoint: median survival time, higher = longer survival
Method in brief: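 Mice carrying the transplanted tumor received test compound or vehicle. Survival was recorded in each group, and the value is the treated-group measurement divided by that of the vehicle-treated control group.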

[1] = dose: 25.0 mg/kg/injection, schedule: Q04DX002 (ip), vehicle: saline with Tween-80
[2] = dose: 50.0 mg/kg/injection, schedule: Q04DX002 (ip), vehicle: saline with Tween-80
[3] = dose: 100.0 mg/kg/injection, schedule: Q04DX002 (ip), vehicle: saline with Tween-80
[4] = dose: 50.0 mg/kg/injection, schedule: Q01DX005 (ip), vehicle: saline with Tween-80
[5] = dose: 100.0 mg/kg/injection, schedule: Q01DX005 (ip), vehicle: saline with Tween-80
[6] = dose: 60.0 mg/kg/injection, schedule: Q01DX005 (ip), vehicle: saline with Tween-80
[7] = dose: 120.0 mg/kg/injection, schedule: Q01DX005 (ip), vehicle: saline with Tween-80
[8] = dose: 240.0 mg/kg/injection, schedule: Q01DX005 (ip), vehicle: saline with Tween-80
[9] = dose: 100.0 mg/kg/injection, schedule: Q01DX009 (ip), vehicle: saline with Tween-80
[10] = dose: 200.0 mg/kg/injection, schedule: Q01DX009 (ip), vehicle: saline with Tween-80
[11] = dose: 50.0 mg/kg/injection, schedule: Q01DX009 (ip), vehicle: saline with Tween-80
[12] = dose: 25.0 mg/kg/injection, schedule: Q01DX009 (ip), vehicle: saline with Tween-80
[13] = dose: 100.0 mg/kg/injection, schedule: Q04DX003 (ip), vehicle: saline
[14] = dose: 200.0 mg/kg/injection, schedule: Q04DX003 (ip), vehicle: saline
[15] = dose: 50.0 mg/kg/injection, schedule: Q01DX005 (ip), vehicle: Klucel (hydroxypropylcellulose) (HPC)
[16] = dose: 100.0 mg/kg/injection, schedule: Q01DX005 (ip), vehicle: Klucel (hydroxypropylcellulose) (HPC)
[17] = dose: 200.0 mg/kg/injection, schedule: Q01DX005 (ip), vehicle: Klucel (hydroxypropylcellulose) (HPC)
[18] = dose: 15.0 mg/kg/injection, schedule: Q01DX005 (ip), vehicle: saline with Tween-80
[19] = dose: 7.5 mg/kg/injection, schedule: Q01DX005 (ip), vehicle: saline with Tween-80

Measured: T/C

CSC1SC(C#N)=C(N)C1[n+]1ccccc1 (centres undefined)
inactive: [1] 105 % of control | [2] 105 % of control | [3] 104 % of control

COc1ccc2[nH]c(C(=O)N(C)C)cc2c1
inactive: [4] 100 % of control | [5] 104 % of control | dose: 200.0 mg/kg/injection, schedule: Q01DX005 (ip), vehicle: saline with Tween-80 101 % of control

O=c1[nH]nc(-c2ccc(Br)cc2)s1
inactive: dose: 100.0 mg/kg/injection, schedule: Q04DX003 (ip), vehicle: saline with Tween-80 98 % of control | dose: 200.0 mg/kg/injection, schedule: Q04DX003 (ip), vehicle: saline with Tween-80 100 % of control | dose: 400.0 mg/kg/injection, schedule: Q04DX003 (ip), vehicle: saline with Tween-80 99 % of control

CN(C)CCSC1=Nc2ccc(Cl)cc2C(c2ccccc2Cl)=NC1
inactive: [6] 98 % of control | dose: 60.0 mg/kg/injection, schedule: Q01DX005 (ip), vehicle: saline 99 % of control | [7] 101 % of control | dose: 120.0 mg/kg/injection, schedule: Q01DX005 (ip), vehicle: saline 104 % of control | [8] 105 % of control | dose: 240.0 mg/kg/injection, schedule: Q01DX005 (ip), vehicle: saline 98 % of control

O=C(/C=C(\NC1CCCCC1)C(=O)c1ccccc1)c1ccccc1
inactive: [9] 90 % of control | [10] 90 % of control | dose: 400.0 mg/kg/injection, schedule: Q01DX009 (ip), vehicle: saline with Tween-80 100 % of control

COC(=O)CCc1onc(Br)c1CCl
inactive: [11] 110 % of control | [9] 115 % of control | [10] 119 % of control

O=c1c2ccccc2sc2cccc(NCCN3CCC(C4CCN(CCNc5cccc6sc7ccccc7c(=O)c56)CC4)CC3)c12
inactive: dose: 6.25 mg/kg/injection, schedule: Q01DX005 (ip), vehicle: saline with Tween-80 105 % of control | dose: 12.5 mg/kg/injection, schedule: Q01DX005 (ip), vehicle: saline with Tween-80 90 % of control | [4] 96 % of control | [5] 92 % of control

C/C=C/c1cc2c(c(=O)o1)C(=O)[C@@H](O)[C@H](C)O2
inactive: dose: 12.5 mg/kg/injection, schedule: Q01DX009 (ip), vehicle: saline with Tween-80 101 % of control | [12] 101 % of control | dose: 44.0 mg/kg/injection, schedule: Q01DX009 (ip), vehicle: saline with Tween-80 112 % of control | [11] 110 % of control | dose: 66.0 mg/kg/injection, schedule: Q01DX009 (ip), vehicle: saline with Tween-80 121 % of control

Nc1nnnn1-c1ccccc1Cl
inactive: dose: 100.0 mg/kg/injection, schedule: Q04DX003 (ip), vehicle: Klucel (hydroxypropylcellulose) (HPC) 105 % of control | dose: 200.0 mg/kg/injection, schedule: Q04DX003 (ip), vehicle: Klucel (hydroxypropylcellulose) (HPC) 100 % of control | dose: 400.0 mg/kg/injection, schedule: Q04DX003 (ip), vehicle: Klucel (hydroxypropylcellulose) (HPC) 101 % of control

COC(OC)c1cc(=O)[nH]c(=S)[nH]1
inactive: dose: 50.0 mg/kg/injection, schedule: Q04DX003 (ip), vehicle: saline 95 % of control | [13] 96 % of control | [14] 93 % of control | dose: 400.0 mg/kg/injection, schedule: Q04DX003 (ip), vehicle: saline 104 % of control

CC(=O)c1c(O)c(C)cc2c1CCc1ccc(O)c(C)c1-2
inactive: dose: 2.0 mg/kg/injection, schedule: Q01DX009 (ip), vehicle: Klucel (hydroxypropylcellulose) (HPC) 116 % of control | dose: 4.0 mg/kg/injection, schedule: Q01DX009 (ip), vehicle: Klucel (hydroxypropylcellulose) (HPC) 100 % of control | dose: 8.0 mg/kg/injection, schedule: Q01DX009 (ip), vehicle: Klucel (hydroxypropylcellulose) (HPC) 107 % of control | dose: 16.0 mg/kg/injection, schedule: Q01DX009 (ip), vehicle: Klucel (hydroxypropylcellulose) (HPC) 108 % of control

C=C(C)C1CC=C(C)C(SCCN(CC)CC)C1 (centres undefined)
inactive: [15] 104 % of control | [16] 109 % of control | [17] 118 % of control

O=[N+]([O-])c1cccc(N=Nn2cccc2)c1
inactive: [12] 100 % of control | [11] 100 % of control | [9] 109 % of control

O=C(NC(=S)Nc1cccc2c(O)cccc12)c1cccc(Br)c1
inactive: [18] 91 % of control | dose: 30.0 mg/kg/injection, schedule: Q01DX005 (ip), vehicle: saline with Tween-80 89 % of control | [6] 91 % of control | [8] 90 % of control and 94 % of control

O=C(CNC(=O)c1ccccc1)N/N=C\c1c[nH]c2ccccc12
inactive: [6] 101 % of control | [7] 100 % of control | [8] 96 % of control

Cc1ccc(S(=O)(=O)OCCOCCOc2ccc3ccccc3c2-c2c(OCCOS(=O)(=O)c3ccc(C)cc3)ccc3ccccc23)cc1
inactive: dose: 100.0 mg/kg/injection, schedule: Q01DX001 (ip), vehicle: saline with Tween-80 89 % of control | dose: 200.0 mg/kg/injection, schedule: Q01DX001 (ip), vehicle: saline with Tween-80 100 % of control

O=C(/C=C/c1ccccc1Cl)c1ccccc1
inactive: [11] 112 % of control | [9] 110 % of control | [10] 114 % of control

C=C(C)C(=O)Nc1ccc(NS(=O)(=O)c2ccc(C(C)CC)cc2)c(O)c1 (centres undefined)
inactive: dose: 50.0 mg/kg/injection, schedule: Q01DX009 (ip), vehicle: saline + alcohol 101 % of control | dose: 100.0 mg/kg/injection, schedule: Q01DX009 (ip), vehicle: saline + alcohol 106 % of control | dose: 200.0 mg/kg/injection, schedule: Q01DX009 (ip), vehicle: saline + alcohol 106 % of control

Cc1ccc(S(=O)(=O)N(CCCc2c(-c3ccccc3)nc(N)[nH]c2=O)c2ccccc2)cc1
inactive: dose: 3.75 mg/kg/injection, schedule: Q01DX005 (ip), vehicle: saline with Tween-80 102 % of control | [19] 94 % of control | [18] 107 % of control and 87 % of control | [6] 98 % of control and 90 % of control

OC(COc1c2ccccc2nc2ccccc12)CN1CCOCC1 (centres undefined)
inactive: [4] 99 % of control | [5] 93 % of control

Cc1cc(C)n(C2=NS(=O)(=O)c3ccccc3N2C)n1
inactive: [6] 93 % of control | [7] 101 % of control | [8] 99 % of control

O=C1C2C3CCC(O3)C2C(=O)N1CC#CCCl (centres undefined)
inactive: [19] 96 % of control | [18] 100 % of control

NC1=NC2(CS1)CSC(N)=N2
inactive: [11] 94 % of control | [9] 113 % of control | [10] 90 % of control

O=C(O)CCNC(Cc1ccc(O)cc1)C(=O)O (centres undefined)
inactive: [15] 96 % of control | [16] 102 % of control | [17] 103 % of control

O=C1c2ccccc2C(=O)N1CCc1ncc[nH]1
inactive: [6] 99 % of control | [7] 99 % of control | [8] 100 % of control

NC(=S)c1ccc(C2Nc3ccccc3N2)cc1
inactive: [1] 95 % of control | [2] 92 % of control | [3] 87 % of control and 91 % of control

CCCCCN(CCC)CCCCCCCCCN1CCCc2cc(OC)ccc21
inactive: dose: 50.0 mg/kg/injection, schedule: Q01DX005 (ip), vehicle: saline + Tween-80 + alcohol 105 % of control | dose: 100.0 mg/kg/injection, schedule: Q01DX005 (ip), vehicle: saline + Tween-80 + alcohol 110 % of control

Cc1ccc2c(c1)C(O)C(N)CCO2 (centres undefined)
inactive: [13] 100 % of control | [14] 102 % of control
